Results reported in US20240254533A1, “METHODS FOR PRODUCING TRYPTAMINE DERIVATIVES” (OCTARINE BIO APS, priority 2021, published 2024).

Assay: Chemical stability of substituted tryptamine derivatives under alkaline, acidic, oxidative and heat stress
Assay type: physicochemical
Details: for Degradation after 24 h exposure (in words): all conditions tested
Experimental: Chemical stability of substituted tryptamine derivatives was determined under alkaline, acidic, oxidative and heat stress as follows. 25 mM stock solutions of the target tryptamine molecules were prepared in 100% methanol. 15 μL is mixed with 5 μL of 400 mM HCl solution (final pH=1.1), 400 mM NaOH solution (Final pH=12.5), 12% H2O2 solution (final concentration 3%), or H2O pH 7.0. Acidic, alkaline and oxidative samples were incubated at 30° C. for 24 h while samples in water were incubated at 80° C. for 24 h. A control under ambient conditions was also prepared where 15 μL of the molecule was added to 5 μL H2O pH 7.0 and incubated at 30° C. After 24 h samples were placed on ice and 60 μL of ice-cold 100% methanol is added to each sample. Samples were centrifuged and transferred to HPLC vials for analysis. The remaining concentration was quantified by comparing to authentic analytical standards. Determining the presence of degradation products were determined by comparing with authentic analytical standards.
While the added phosphate group of psilocybin helps protect the molecule from degradation, psilocybin is also relatively unstable, prone to dephosphorylation to psilocin and subsequent degradation. The instability of these molecules hinders formulation and delivery of the compound for therapeutic use. To improve the chemical stability of the active compound psilocin, glycosylation can be used as an effective strategy. […] Degradation of each compound was assessed by measuring the amount of compound remaining after 24 h exposure to each condition.

[1] = pH = 1.1 (HCl), 24 h incubation
[2] = pH = 12.5 (NaOH), 24 h incubation

| Structure (SMILES) | % left after 24 h (3% H2O2, 24 h incubation) | % left after 24 h (4° C., 24 h incubation) | % left after 24 h (30° C., 24 h incubation) | % left after 24 h (80° C., 24 h incubation) | % left after 24 h (Control) | Degradation after 24 h exposure (in words) | % left after 24 h [1] | % left after 24 h [2] |
| --- | --- | --- | --- | --- | --- | --- | --- | --- |
| CN(C)CCc1c[nH]c2cccc(O[C@@H]3O[C@H](CO)[C@@H](O)[C@H](O)[C@H]3O)c12 [Psilocin glucoside, psilocin-O-β-D-glucoside] | 100.0% | 100.0% | 100.0% | 100.0% | 100.0% | practically no signs of degradation | 100.0% | 100.0% |
| CN(C)CCc1c[nH]c2cccc(O)c12 [Psilocin] | 0.0% | 0.0% | 0.0% | 0.0% | 100.0% | complete degradation | 0.0% | 0.0% |
| CN(C)CCc1c[nH]c2cccc(OP(=O)(O)O)c12 [Psilocybin] | – | – | – | – | – | much less degradation compared to psilocin | – | – |
